Reference: patent publication US8471005B2 (Cephalon, Inc., priority 2008, dated 2013)
Where two headings read alike, the source gives them in different places.

Legend:
[1] = target: T1, ALK (Homo sapiens, UniProt Q9UM73); assay: ALK Kinase Assay (ELISA/TRF, PLC-γ substrate); format: biochemical; conditions: read-out: ALK Potency
T1 construct: host or cells: baculovirus expression system
Outline: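 First, plates are coated with substrate (phospholipase C-γ, 10 μg/mL, TBS). Next, 30 ng/ml ALK initiates phosphorylation for 15 min at 37° C. Then Eu-N1 PT66 antibody is added for detection, and a nonlinear dose-response fit of percent inhibition yields IC50.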

[2] = target: T2, JAK2 (Homo sapiens, UniProt O60674); assay: Recombinant Human JAK2 Kinase Assay (TRF); format: biochemical; conditions: read-out: JAK2 Potency
T2 construct: host or cells: baculovirus expression system
Outline: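 Europium-labelled PY100 antibody reported tyrosine phosphorylation of a Neutravidin-captured biotinyl 15-mer peptide by JAK2 (baculovirus-expressed, 15 ng/ml). Conditions: 20 mM HEPES pH 7.2, 0.2 μM ATP, 1 mM MnCl2, 0.1% BSA, DMSO 2.5% final, 20 min at room temperature.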

[3] = ALK kinase inhibition, 1 μM ATP
[4] = JAK2 kinase inhibition, 0.2 μM ATP

T1 sequence (Q9UM73 19-1620): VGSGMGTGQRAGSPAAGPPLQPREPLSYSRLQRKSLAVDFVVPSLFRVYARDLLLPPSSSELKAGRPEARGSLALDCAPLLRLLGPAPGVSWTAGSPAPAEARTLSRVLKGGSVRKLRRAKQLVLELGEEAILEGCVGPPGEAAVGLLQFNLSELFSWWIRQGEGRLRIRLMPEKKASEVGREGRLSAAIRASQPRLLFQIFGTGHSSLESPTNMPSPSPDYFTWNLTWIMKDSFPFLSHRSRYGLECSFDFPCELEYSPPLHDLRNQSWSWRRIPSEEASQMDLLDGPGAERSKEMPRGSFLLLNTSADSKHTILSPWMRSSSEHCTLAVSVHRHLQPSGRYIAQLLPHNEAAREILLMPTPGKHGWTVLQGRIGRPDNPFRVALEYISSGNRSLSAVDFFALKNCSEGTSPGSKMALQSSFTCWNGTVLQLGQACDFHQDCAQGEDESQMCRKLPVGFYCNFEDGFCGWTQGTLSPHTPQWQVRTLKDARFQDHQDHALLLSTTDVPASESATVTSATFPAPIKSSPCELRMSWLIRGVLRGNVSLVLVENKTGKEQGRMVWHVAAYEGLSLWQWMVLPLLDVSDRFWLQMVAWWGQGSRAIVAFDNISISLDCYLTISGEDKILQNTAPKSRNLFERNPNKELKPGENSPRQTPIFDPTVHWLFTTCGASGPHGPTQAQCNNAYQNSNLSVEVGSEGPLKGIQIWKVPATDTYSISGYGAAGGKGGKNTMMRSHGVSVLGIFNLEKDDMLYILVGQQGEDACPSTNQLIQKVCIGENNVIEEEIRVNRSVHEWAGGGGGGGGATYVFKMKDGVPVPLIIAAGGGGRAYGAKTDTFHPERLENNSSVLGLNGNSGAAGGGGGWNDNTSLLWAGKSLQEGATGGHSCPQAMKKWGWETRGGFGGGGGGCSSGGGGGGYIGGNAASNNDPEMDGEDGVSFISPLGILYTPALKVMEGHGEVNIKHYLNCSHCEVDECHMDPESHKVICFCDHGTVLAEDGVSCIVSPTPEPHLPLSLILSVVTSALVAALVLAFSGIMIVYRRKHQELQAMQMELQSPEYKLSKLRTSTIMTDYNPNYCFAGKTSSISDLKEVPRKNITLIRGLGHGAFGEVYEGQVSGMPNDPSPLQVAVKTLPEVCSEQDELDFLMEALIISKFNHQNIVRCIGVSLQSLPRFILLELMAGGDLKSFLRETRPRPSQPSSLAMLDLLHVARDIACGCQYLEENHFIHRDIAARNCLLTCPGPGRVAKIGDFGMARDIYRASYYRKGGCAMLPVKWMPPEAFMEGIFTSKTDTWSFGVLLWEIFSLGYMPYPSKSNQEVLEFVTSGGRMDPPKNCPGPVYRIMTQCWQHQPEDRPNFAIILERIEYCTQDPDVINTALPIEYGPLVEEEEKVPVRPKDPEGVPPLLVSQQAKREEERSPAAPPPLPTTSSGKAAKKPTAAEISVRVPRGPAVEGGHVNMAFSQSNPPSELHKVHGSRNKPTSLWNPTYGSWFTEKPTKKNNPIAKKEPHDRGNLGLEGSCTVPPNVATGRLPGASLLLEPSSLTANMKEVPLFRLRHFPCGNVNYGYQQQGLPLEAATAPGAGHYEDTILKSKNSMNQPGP
T2 sequence (O60674 whole entry): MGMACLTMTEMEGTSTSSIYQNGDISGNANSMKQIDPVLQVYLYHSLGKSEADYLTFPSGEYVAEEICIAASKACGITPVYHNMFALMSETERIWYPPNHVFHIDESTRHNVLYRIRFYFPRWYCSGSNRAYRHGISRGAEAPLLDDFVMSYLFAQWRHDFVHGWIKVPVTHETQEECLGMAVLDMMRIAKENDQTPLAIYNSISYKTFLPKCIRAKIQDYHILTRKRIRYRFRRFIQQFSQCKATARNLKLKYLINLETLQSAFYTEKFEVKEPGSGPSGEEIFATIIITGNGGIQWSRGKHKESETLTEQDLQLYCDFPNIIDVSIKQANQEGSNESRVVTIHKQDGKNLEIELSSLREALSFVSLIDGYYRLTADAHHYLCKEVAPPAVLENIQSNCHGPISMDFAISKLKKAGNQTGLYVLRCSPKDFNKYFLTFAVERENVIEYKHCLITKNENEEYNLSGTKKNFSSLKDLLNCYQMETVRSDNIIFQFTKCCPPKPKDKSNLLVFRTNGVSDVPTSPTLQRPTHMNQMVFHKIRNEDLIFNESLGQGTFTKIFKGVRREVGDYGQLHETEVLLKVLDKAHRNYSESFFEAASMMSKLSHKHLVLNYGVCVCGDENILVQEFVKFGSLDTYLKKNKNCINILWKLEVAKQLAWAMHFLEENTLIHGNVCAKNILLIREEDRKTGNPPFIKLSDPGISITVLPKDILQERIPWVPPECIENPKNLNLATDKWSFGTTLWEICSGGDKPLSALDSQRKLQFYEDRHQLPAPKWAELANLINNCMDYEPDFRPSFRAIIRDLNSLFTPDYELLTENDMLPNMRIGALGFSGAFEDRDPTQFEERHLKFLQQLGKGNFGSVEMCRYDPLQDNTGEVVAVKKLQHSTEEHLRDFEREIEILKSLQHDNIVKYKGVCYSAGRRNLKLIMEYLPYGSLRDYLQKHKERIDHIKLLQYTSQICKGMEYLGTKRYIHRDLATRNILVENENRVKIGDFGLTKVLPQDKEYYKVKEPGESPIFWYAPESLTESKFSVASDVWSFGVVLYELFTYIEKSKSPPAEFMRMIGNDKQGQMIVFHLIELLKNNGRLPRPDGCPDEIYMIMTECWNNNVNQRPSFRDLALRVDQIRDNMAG

SMILES | IC50 ([1]; ALK Kinase Inhibition) [nM] | IC50 ([2]; JAK2 Kinase Inhibition) [nM] | IC50 [1, 3] [nM] | IC50 [2, 4] [nM]
CC(=O)Nc1cccc(Nc2ncc3ccc(-c4cccc(COC(C)(C)C)c4)n3n2)c1 [Example 1559, N-{3-[7-(3-tert-Butoxymethyl-phenyl)-pyrrolo[2,1-f][1,2,4]triazin-2-ylamino]-phenyl}-acetamide] | 1000 to 10000 | < 100 |  | 
CN1CCN(c2ccc(Nc3ncc4ccc(-c5cccc(N(C)S(C)(=O)=O)c5)n4n3)cc2)CC1 [Example 419, N-Methyl-N-(3-{2-[4-(4-methyl-piperazin-1-yl)-phenylamino]-pyrrolo[2,1-f][1,2,4]triazin-7-yl}-phenyl)-methanesulfonamide] | 100 to 1000 | < 100 |  | 
COc1cc(N2CCC(N3CCN(C(=O)OCc4ccccc4)CC3)CC2)ccc1Nc1ncc2ccc(-c3ccccc3OC)n2n1 [Example 531, 4-(1-{3-Methoxy-4-[7-(2-methoxy-phenyl)-pyrrolo[2,1-f][1,2,4]triazin-2-ylamino]-phenyl}-piperidin-4-yl)-piperazine-1-carboxylic acid benzyl ester] |  |  | < 100 | 100 to 1000
COc1ccccc1-c1ccc2cnc(Nc3ccc(N4CCCC(N5CCN(C)CC5)C4)cc3)nn12 (stereo not shown) [Example 348, [7-(2-Methoxy-phenyl)-pyrrolo[2,1-f][1,2,4]triazin-2-yl]-{4-[3-(4-methyl-piperazin-1-yl)-piperidin-1-yl]-phenyl}-amine] | < 100 | < 100 |  | 
COc1cc(Cn2ccnc2C)ccc1Nc1ncc2ccc(-c3ccccc3N(C)S(C)(=O)=O)n2n1 [Example 505, N-(2-{2-[2-Methoxy-4-(2-methyl-imidazol-1-ylmethyl)-phenylamino]-pyrrolo[2,1-f][1,2,4]triazin-7-yl}-phenyl)-N-methyl-methanesulfonamide] |  |  | < 100 | 1000 to 10000
Clc1cccc(Nc2ncc3cc4ccccc4n3n2)c1 [Example 271, (3-Chloro-phenyl)-[1,2,4]triazino[1,6-a]indol-2-yl-amine] | > 10000 | 100 to 1000 |  | 
CN1CCOc2ccc(Nc3ncc4ccc(-c5cccnc5)n4n3)cc21 [Example 642, (4-Methyl-3,4-dihydro-2H-benzo[1,4]oxazin-6-yl)-(7-pyridin-3-yl-pyrrolo[2,1-f][1,2,4]triazin-2-yl)-amine] |  |  | 1000 to 10000 | < 100
Clc1cc(N2CCOCC2)ccc1Nc1ncc2c(Cl)cc(-c3ccccc3)n2n1 [Example 80, (2-Chloro-4-morpholin-4-yl-phenyl)-(5-chloro-7-phenyl-pyrrolo[2,1-f][1,2,4]triazin-2-yl)-amine] | > 10000 | < 100 |  | 
COc1ccccc1-c1ccc2cnc(Nc3ccc(OCCN4CCN(C)CC4)cc3)nn12 [Example 94, [7-(2-Methoxy-phenyl)-pyrrolo[2,1-f][1,2,4]triazin-2-yl]-{4-[2-(4-methyl-piperazin-1-yl)-ethoxy]-phenyl}-amine] | < 100 | < 100 |  | 
COc1cc(N2CCC[C@@H](C(=O)N3CCN(C)CC3)C2)ccc1Nc1ncc2ccc(-c3ccccc3OC)n2n1 [Example 463, ((R)-1-{3-Methoxy-4-[7-(2-methoxy-phenyl)-pyrrolo[2,1-f][1,2,4]triazin-2-ylamino]-phenyl}-piperidin-3-yl)-(4-methyl-piperazin-1-yl)-methanone] | < 100 | 100 to 1000 |  | 
c1cc(Nc2ncc3cccn3n2)cc(N2CCOCC2)c1 [Example 174, (3-Morpholin-4-yl-phenyl)-pyrrolo[2,1-f][1,2,4]triazin-2-yl-amine] | > 10000 | 100 to 1000 |  | 
C[C@@H](O)CN1CCN(c2cccc(Nc3ncc4ccc(-c5ccc(S(C)(=O)=O)cc5)n4n3)c2)CC1 [Example 217, (R)-1-(4-{3-[7-(4-Methanesulfonyl-phenyl)-pyrrolo[2,1-f][1,2,4]triazin-2-ylamino]-phenyl}-piperazin-1-yl)-propan-2-ol] | 100 to 1000 | < 100 |  | 
COc1ccccc1-c1ccc2cnc(Nc3ccc(OCCN4CCCC4)cc3)nn12 [Example 121, [7-(2-Methoxy-phenyl)-pyrrolo[2,1-f][1,2,4]triazin-2-yl]-[4-(2-pyrrolidin-1-yl-ethoxy)-phenyl]-amine] | < 100 | < 100 |  | 
CC1(C)CCC(=O)Nc2cc(Nc3ncc4cc5ccccc5n4n3)ccc21 [Example 265, 5,5-Dimethyl-8-([1,2,4]triazino[1,6-a]indol-2-ylamino)-1,3,4,5-tetrahydro-benzo[b]azepin-2-one] | > 10000 | < 100 |  | 
N#Cc1cccc(-c2ccc3cnc(Nc4ccc(N5CCOCC5)cc4)nn23)c1 [Example 39, 3-[2-(4-Morpholin-4-yl-phenylamino)-pyrrolo[2,1-f][1,2,4]triazin-7-yl]-benzonitrile] | > 10000 | < 100 |  | 

Continued, values first:

IC50 ([1]; ALK Kinase Inhibition) [nM] | IC50 ([2]; JAK2 Kinase Inhibition) [nM] | IC50 [1, 3] [nM] | IC50 [2, 4] [nM] | SMILES
 |  | 1000 to 10000 | < 100 | CS(=O)(=O)Nc1cccc(-c2ccc3cnc(Nc4cnn(CCN5CCOCC5)c4)nn23)c1 [Example 1195, N-(3-{2-[1-(2-Morpholin-4-yl-ethyl)-1H-pyrazol-4-ylamino]-pyrrolo[2,1-f][1,2,4]triazin-7-yl}-phenyl)-methanesulfonamide]
< 100 | < 100 |  |  | COc1cc(N2CCC(N3CCOCC3)CC2)ccc1Nc1ncc2ccc(-c3ccccc3N(CCF)S(C)(=O)=O)n2n1 [Example 1463, N-(2-Fluoro-ethyl)-N-(2-{2-[2-methoxy-4-(4-morpholin-4-yl-piperidin-1-yl)-phenylamino]-pyrrolo[2,1-f][1,2,4]triazin-7-yl}-phenyl)-methanesulfonamide]
 |  | < 100 | 100 to 1000 | COc1cc2c(cc1Nc1ncc3ccc(-c4cccc(S(=O)(=O)NC(C)(C)C)c4)n3n1)CCN(C[C@@H](C)O)CC2 [Example 700]
 |  | 100 to 1000 | < 100 | COc1ccccc1-c1ccc2cnc(Nc3ccn(CC(=O)N4CCN(C)CC4)n3)nn12 [Example 1114, 2-{3-[7-(2-Methoxy-phenyl)-pyrrolo[2,1-f][1,2,4]triazin-2-ylamino]-pyrazol-1-yl}-1-(4-methyl-piperazin-1-yl)-ethanone]
< 100 | < 100 |  |  | COc1cc(N2CCC(N3CCOCC3)CC2)ccc1Nc1ncc2ccc(-c3cccc(OC)c3OC)n2n1 [Example 1465, [7-(2,3-Dimethoxy-phenyl)-pyrrolo[2,1-f][1,2,4]triazin-2-yl]-[2-methoxy-4-(4-morpholin-4-yl-piperidin-1-yl)-phenyl]-amine]
 |  | < 100 | < 100 | CCN1CCCC(CC)(c2ccc(Nc3ncc4ccc(-c5ccccc5OC)n4n3)cc2)C1 (racemic) [Example 777, (±)-[4-(1,3-Diethyl-piperidin-3-yl)-phenyl]-[7-(2-methoxy-phenyl)pyrrolo-[2,1-f][1,2,4]triazin-2-yl]-amine]
 |  | 100 to 1000 | < 100 | CCOC(=O)c1ccccc1-c1ccc2cnc(Nc3ccc(N4CCN(C)CC4)cc3)nn12 [Example 1146, 2-{2-[4-(4-Methyl-piperazin-1-yl)-phenylamino]-pyrrolo[2,1-f][1,2,4]triazin-7-yl}-benzoic acid ethyl ester]
100 to 1000 | < 100 |  |  | CC(C)(C)NS(=O)(=O)c1cccc(-c2ccc3cnc(Nc4ccc(N5CCN(CC(N)=O)CC5)c(F)c4)nn23)c1 [Example 1407, 2-(4-{4-[7-(3-tert-Butylsulfamoyl-phenyl)-pyrrolo[2,1-f][1,2,4]triazin-2-ylamino]-2-fluoro-phenyl}-piperazin-1-yl)-acetamide]
 |  | < 100 | 100 to 1000 | COc1cc(CN2CCN(C(C)=O)CC2)ccc1Nc1ncc2ccc(-c3ccccc3N(C)S(C)(=O)=O)n2n1 [Example 1240, N-(2-{2-[4-(4-Acetyl-piperazin-1-ylmethyl)-2-methoxy-phenylamino]-pyrrolo[2,1-f][1,2,4]triazin-7-yl}-phenyl)-N-methyl-methanesulfonamide]
 |  | < 100 | < 100 | COc1cc2c(cc1Nc1ncc3ccc(-c4ccccc4OC)n3n1)CN(C1COC1)C2 [Example 850, (6-Methoxy-2-oxetan-3-yl-2,3-dihydro-1H-isoindol-5-yl)-[7-(2-methoxy-phenyl)-pyrrolo[2,1-f][1,2,4]triazin-2-yl]-amine]
 |  | 100 to 1000 | < 100 | N#CCCn1cccc1-c1ccc2cnc(Nc3ccc(N4CCOCC4)cc3)nn12 [Example 1293, 3-{2-[2-(4-Morpholin-4-yl-phenylamino)-pyrrolo[2,1-f][1,2,4]triazin-7-yl]-pyrrol-1-yl}-propionitrile]
 |  | 1000 to 10000 | < 100 | COc1ccccc1-c1ccc2cnc(Nc3cnn(CCN4CCOCC4)c3)nn12 [Example 1190, [7-(2-Methoxy-phenyl)-pyrrolo[2,1-f][1,2,4]triazin-2-yl]-[1-(2-morpholin-4-yl-ethyl)-1H-pyrazol-4-yl]-amine]
 |  | < 100 | < 100 | COc1cc(N2CCN(C[C@@H](C)O)CC2)ccc1Nc1ncc2ccc(-c3ccccc3OC)n2n1 [Example 754, (R)-1-(4-{3-Methoxy-4-[7-(2-methoxy-phenyl)-pyrrolo[2,1-f][1,2,4]triazin-2-ylamino]-phenyl}-piperazin-1-yl)-propan-2-ol]
100 to 1000 | < 100 |  |  | CN1CCN(C)C(c2ccc(Nc3ncc4ccc(-c5cccc(S(=O)(=O)NC(C)(C)C)c5)n4n3)cc2)C1 (stereo not shown) [Example 1567, N-tert-Butyl-3-{2-[4-(1,4-dimethyl-piperazin-2-yl)-phenylamino]-pyrrolo[2,1-f][1,2,4]triazin-7-yl}-benzenesulfonamide]
